Article PMC10298979, “Assessments of Alpha-Amylase Inhibitory Potential of Tagetes Flavonoids through In Vitro, Molecular Docking, and Molecular Dynamics Simulation Studies” (International Journal of Molecular Sciences, 2023)

Columns and labels:
[1] = target: alpha-amylase; assay: in vitro alpha-amylase inhibition (AAI) assay, Ultra-Amylase EnzChek Assay Kit; type: biochemical
Description: The AAI capacity of T. minuta flavonoids was estimated using an Ultra-Amylase®Enz-Chek Assay Kit in line with a formerly reported method.

[2] = parameters: method as in PMID 24599122, PMID 16168446; details: cited from earlier work; for IC50 for DPPH: radical scavenging
[3] = parameters: method as in PMID 24599122, PMID 16168446; details: cited from earlier work
[4] = tested on: PE (phenylephrine)-precontracted thoracic aortic rings; parameters: method as in PMID 23763258; details: PE-precontracted thoracic aortic rings in rats; cited from earlier work
[5] = no reference given; cited from earlier work

SMILES | IC50 [1] | other results
COc1c(O)cc2oc(-c3ccc(O)c(O)c3)c(O)c(=O)c2c1O [Compound 8, patuletin] | 13.6 µM | –
COc1c(O)cc2oc(-c3ccc(O)c(O)c3)c(OC)c(=O)c2c1O [Compound 11, quercetin-3,6-dimethyl ether] | 21.7 µM | –
O=c1c(O)c(-c2ccc(O)c(O)c2)oc2cc(O)c(OC3OC(CO)C(O)C(O)C3O)c(O)c12 [Compound 3, quercetagetin-6-O-β-D-glucopyranoside] | 8.9 µM | –
CCCCCC(=O)OCC1OC(Oc2c(O)cc3oc(-c4ccc(O)c(O)c4)c(O)c(=O)c3c2O)C(O)C(O)C1O (stereo not shown) [Compound 4, minutaside A] | 9.2 µM | –
COc1c(-c2ccc(O)c(O)c2)oc2cc(O)cc(O)c2c1=O [Compound 10, quercetin-3-methyl ether] | 26.9 µM | –
O=c1c(O)c(-c2ccc(O)c(O)c2)oc2cc(OC3OC(CO)C(O)C(O)C3O)c(O)c(O)c12 [Compound 2, quercetagetin-7-O-β-D-glucopyranoside] | 7.8 µM | IC50 for DPPH [2]: 3.92 µg/mL; %inhibition for superoxide anion [3]: 82.85%; vasorelaxation [4]: vasorelaxation potential
COc1ccc(-c2oc3c(O)c(O)c(OC)c(O)c3c(=O)c2OC)cc1O [Compound 12, tagenol A] | 14.9 µM | –
COc1cc2oc(-c3ccc(O)c(O)c3)c(O)c(=O)c2c(O)c1O[C@@H]1O[C@H](CO)[C@@H](O)[C@H](O)[C@H]1O [Compound 6, quercetagetin-7-methoxy-6-O-β-D-glucopyranoside] | 9.7 µM | –
COc1cc2oc(-c3ccc(O)c(O)c3)c(OC)c(=O)c2c(O)c1O[C@@H]1O[C@H](CO)[C@@H](O)[C@H](O)[C@H]1O [Compound 9, quercetagetin-3,7-dimethoxy-6-O-β-D-glucopyranoside] | 12.7 µM | –
C[C@H]1O[C@H](O[C@H]2[C@H](O)[C@@H](O)[C@@H](O[C@H]3[C@H](O)[C@@H](O)C(O)O[C@@H]3CO)O[C@@H]2CO)[C@H](O)[C@@H](O)[C@@H]1N[C@H]1C=C(CO)[C@@H](O)[C@H](O)[C@H]1O (stereo partly shown) [Acarbose] | – | oral dose absorbed into the bloodstream [5]: 2%; oral dose eliminated through fecal excretion [5]: approximately 51%
COc1c(-c2ccc(O)c(O)c2)oc2c(O)c(O)c(O[C@@H]3O[C@H](CO)[C@@H](O)[C@H](O)[C@H]3O)c(O)c2c1=O [Compound 7, tagenol B] | 10.8 µM | –
O=C(C=Cc1ccc(O)c(O)c1)OCC1OC(Oc2c(O)cc3oc(-c4ccc(O)c(O)c4)c(O)c(=O)c3c2O)C(O)C(O)C1O [Compound 1, quercetagetin-6-O-(6-O-caffeoyl-β-D-glucopyranoside)] | 10.1 µM | DPPH scavenging [2]: 89.1%
COc1c(OC2OC(CO)C(O)C(O)C2O)cc2oc(-c3ccc(O)c(O)c3)c(O)c(=O)c2c1O [Compound 5, patuletin-7-O-β-D-glucopyranoside] | 8.1 µM | IC50 for DPPH [2]: 12.1 µg/mL
